Reference: PubChem BioAssay AID2060483 (Molecular Pharmacology Branch, DTP, NCI, 2025)

System: K24384-001-R-PDC complex spheroids, viability
Assay: Anticancer human tumor K24384-001-R-PDC patient-derived pancreatic adenocarcinoma cell line growth inhibition [GQUAD]
Settings: for IC50: curve of first compound; for viability, T/C: stronger effect = lower value; active means viability on the fitted dose curve at most 10% of control; inactive means the rest
Outline: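 Viability of tumor cells grown as complex spheroids with endothelial and stromal cells, exposed to drug combinations. Top concentration at or near clinical Cmax (else 10 microM), diluted in half-log increments.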
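Further: spheroids exposed to compounds for seven days.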

COc1ncnc(C2CC2)c1-c1ncc2cnn(Cc3ccc(-c4nc(C(F)(F)F)cn4C(C)C)cc3)c2n1 + Cc1cnc(CNC(=O)c2c(=O)c3ccc(N4CCCN(C)CC4)nc3n3c2sc2ccccc23)cn1
inactive: viability, T/C (second compound 0.0316 µM, first compound 0.0316 µM) 85.9% | viability, T/C (second compound 0.0316 µM, first compound 0.1 µM) 90.3% | viability, T/C (second compound 0.0316 µM, first compound 0.316 µM) 78% | viability, T/C (second compound 0.0316 µM, first compound 1 µM) 84.6% | viability, T/C (second compound 0.0316 µM, first compound 3.16 µM) 69.1% | viability, T/C (second compound 0.0316 µM, first compound 10 µM) 94.5% | viability, T/C (second compound 0.1 µM, first compound 0.0316 µM) 46.1% | viability, T/C (second compound 0.1 µM, first compound 0.1 µM) 71% | viability, T/C (second compound 0.1 µM, first compound 0.316 µM) 71.6% | viability, T/C (second compound 0.1 µM, first compound 1 µM) 52.2% | viability, T/C (second compound 0.1 µM, first compound 3.16 µM) 57.4% | viability, T/C (second compound 0.1 µM, first compound 10 µM) 79.5% | viability, T/C (second compound 0.316 µM, first compound 0.0316 µM) 44.5% | viability, T/C (second compound 0.316 µM, first compound 0.1 µM) 43.5% | viability, T/C (second compound 0.316 µM, first compound 0.316 µM) 43.3% | viability, T/C (second compound 0.316 µM, first compound 1 µM) 43.2% | viability, T/C (second compound 0.316 µM, first compound 3.16 µM) 65.1% | viability, T/C (second compound 0.316 µM, first compound 10 µM) 46.4% | viability, T/C (second compound 1 µM, first compound 0.0316 µM) 43.6% | viability, T/C (second compound 1 µM, first compound 0.1 µM) 46.7% | viability, T/C (second compound 1 µM, first compound 0.316 µM) 41% | viability, T/C (second compound 1 µM, first compound 1 µM) 44.7% | viability, T/C (second compound 1 µM, first compound 3.16 µM) 42.9% | viability, T/C (second compound 1 µM, first compound 10 µM) 36.1% | viability, T/C (second compound 3.16 µM, first compound 0.0316 µM) 31.5% | viability, T/C (second compound 3.16 µM, first compound 0.1 µM) 34% | viability, T/C (second compound 3.16 µM, first compound 0.316 µM) 33% | viability, T/C (second compound 3.16 µM, first compound 1 µM) 42.1% | viability, T/C (second compound 3.16 µM, first compound 3.16 µM) 39.1% | viability, T/C (second compound 3.16 µM, first compound 10 µM) 29% | viability, T/C (second compound 10 µM, first compound 0.0316 µM) 24% | viability, T/C (second compound 10 µM, first compound 0.1 µM) 13.7% | viability, T/C (second compound 10 µM, first compound 0.316 µM) 23.1% | viability, T/C (second compound 10 µM, first compound 1 µM) 20.8% | viability, T/C (second compound 10 µM, first compound 3.16 µM) 17.1%
> 10 µM: IC50 (second compound 0.0316 µM) | IC50 (second compound 0.1 µM)
active: viability, T/C (second compound 10 µM, first compound 10 µM) 0.33%
< 0.0316 µM: IC50 (second compound 0.316 µM) | IC50 (second compound 1 µM) | IC50 (second compound 3.16 µM) | IC50 (second compound 10 µM)
